The record followed here is PMC6146777, “Biocompatible glyconanomaterials based on HPMA-copolymer for specific targeting of galectin-3” (Journal of Nanobiotechnology, 2018).

The target in the assay is T1, Recombinant human His6-tagged galectin-3 (Gal-3) (Homo sapiens, UniProt P17931).
T1 construct: gene LGALS3; His6-tagged Gal-3 (tag kept), expressed in E. coli Rosetta 2 (DE3) pLysS, 28,023 Da calculated, monomer in solution
The assay is described as follows: competitive ELISA, Gal-3 binding to immobilized asialofetuin. The note with it: 6.5 µM Gal-3, EPBS buffer pH 7.5, 2 mM EDTA, 2 h; competitive with asialofetuin. In general terms: ELISA stands for enzyme-linked immunosorbent assay.

T1 sequence (P17931 2-250): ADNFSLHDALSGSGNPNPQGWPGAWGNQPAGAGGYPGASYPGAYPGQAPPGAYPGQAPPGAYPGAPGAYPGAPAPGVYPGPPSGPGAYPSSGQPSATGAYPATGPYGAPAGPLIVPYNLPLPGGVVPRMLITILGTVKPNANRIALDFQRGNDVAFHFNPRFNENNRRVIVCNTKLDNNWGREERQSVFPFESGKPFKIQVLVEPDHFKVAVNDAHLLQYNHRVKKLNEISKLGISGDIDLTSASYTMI

With `CC(=O)N[C@H]1C(O)O[C@H](CO)[C@@H](O[C@@H]2O[C@H](CO)[C@H](O)[C@H](O)[C@H]2O)[C@@H]1O` (some centres unmarked) [LacNAc], the IC50 (in general, the concentration needed to halve the response being measured) came out at 53 ± 16 µM.
Regarding `CC(=O)N[C@H]1[C@H](O[C@H]2[C@H](O)[C@@H](NC(C)=O)C(O)O[C@@H]2CO)O[C@H](CO)[C@H](O)[C@@H]1O` (stereo partly drawn) [compound 5, 2-acetamido-2-deoxy-β-D-galactopyranosyl-(1 → 4)-2-acetamido-2-deoxy-D-glucopyranose], the IC50 stood at 64 ± 20 µM.
